Each structure is given as a SMILES string. Calls of active or inactive are those of the source. The rule behind the calls is not given here.

Series [1] concerns Ebolavirus. Kind of series: Antiviral activity against Ebolavirus Tai Forest assessed as inhibition of viral entry. It is filed as functional, organism-based.
Series [2] deals with Marburgvirus. Kind of series: microbe, parasite or virus in culture. The settings on record: Orthomarburgvirus, Musoke, A549, 48 h.
The subject of series [3] is Zaire ebolavirus. Kind of series: microbe, parasite or virus in culture. The settings on record: Mayinga, Zaire, 1976, A549, 48 h.
The nature of series [4]: in vitro. The settings on record: human, A549 cells.
The subject of series [5] is Marburgvirus. Type of series: functional, organism-based. The settings on record: Orthomarburgvirus, Angola, A549, 24 h.
Series [6] deals with Ebolavirus. Kind of series: Antiviral activity against Ebolavirus (pBDBV) assessed as inhibition of viral entry. It is filed as functional, organism-based.
The target of series [7] is T1, Estrogen receptor (Homo sapiens) (UniProt P03372).
T1 sequence (whole entry): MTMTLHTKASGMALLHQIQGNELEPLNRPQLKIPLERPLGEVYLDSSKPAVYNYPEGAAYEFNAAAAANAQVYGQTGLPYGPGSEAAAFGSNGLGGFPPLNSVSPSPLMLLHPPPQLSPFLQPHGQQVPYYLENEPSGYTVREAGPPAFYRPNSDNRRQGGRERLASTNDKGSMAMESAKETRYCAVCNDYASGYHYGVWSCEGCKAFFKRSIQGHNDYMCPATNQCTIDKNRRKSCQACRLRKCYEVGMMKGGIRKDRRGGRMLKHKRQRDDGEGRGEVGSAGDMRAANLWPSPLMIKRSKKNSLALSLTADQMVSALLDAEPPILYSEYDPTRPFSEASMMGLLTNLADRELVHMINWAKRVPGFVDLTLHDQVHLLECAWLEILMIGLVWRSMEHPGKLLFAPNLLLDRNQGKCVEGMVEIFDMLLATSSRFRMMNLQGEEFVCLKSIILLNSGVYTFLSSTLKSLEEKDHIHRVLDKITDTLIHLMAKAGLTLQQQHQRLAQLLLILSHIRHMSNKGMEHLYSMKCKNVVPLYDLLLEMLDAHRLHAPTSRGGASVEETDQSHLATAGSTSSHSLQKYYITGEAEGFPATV
Kind of series: Agonist activity at ER-alpha in human MCF-7:WS8 cells transfected with an estrogen response element incubated for 18 hrs by luciferase reporter gene assay. Type of series: cell-based. As to conditions: MCF7. For orientation: A reporter such as luciferase makes a cellular process visible.

The subject of series [8] is Vesicular stomatitis virus. Kind of series: Antiviral activity against vesicular stomatitis virus assessed as inhibition of viral entry. It is filed as functional, organism-based.
Series [9] deals with A549. It is filed as cell-based. As to conditions: human.
A short description of series [10]: in vitro. The settings on record: human, A549 cells. The source holds these as a separate data set.
Series [11] has as its target T1, Estrogen receptor (Homo sapiens). Kind of series: Antagonist activity at ER-alpha in human MCF-7:WS8 cells transfected with an estrogen response element assessed as suppression of estrogen-induced response incubated for 18 hrs by luciferase reporter gene assay. Type of series: cell-based. As to conditions: MCF7.
For series [12], the system named is Influenza A virus. Kind of series: Antiviral activity against Influenza A virus H5N1 assessed as inhibition of viral entry. Type of series: functional, organism-based.
The test system of series [13] is Mengla dianlovirus. Kind of series: Antiviral activity against Mengla-virus assessed as inhibition of viral entry. It is filed as functional.
Series [14] relates to Ebolavirus. Kind of series: Antiviral activity against Ebolavirus (pRESTV) assessed as inhibition of viral entry. Type of series: functional, organism-based.

A word on the IC50: it is the concentration at which inhibition is half-maximal. As a reminder, the CC50 is the concentration that lowers cell viability or growth by half. Lower therefore signals greater toxicity to the cells. With `CC/C(=C(/c1ccc(NC(=O)C2CCN(C)C2)cc1)c1ccc(OCCN2CCCC2)cc1)c1ccccc1` (centres undefined), the inhibition entry in series [1], in [6], in [13] and in [14] was “Active” in each case. Also, the IC50 was determined as 720 nM in series [2], 20 nM in series [3] and 960 nM in [5]. The selectivity ratio in series [4] turned out to be 590; in series [10], 30. The outcome in [7] was inactive. Further, the inhibition result in [8], in [11] and in series [12] was “inactive” in each case. In [9], this compound came in with a 50% cytotoxic concentration (CC50) of 11800 nM.

These data come from ChEMBL document CHEMBL4665793, “Screening and Reverse-Engineering of Estrogen Receptor Ligands as Potent Pan-Filovirus Inhibitors” (J Med Chem, 2020).
